In PMC11881035, “^68Ga-Labeled Glycopeptides as Effective Tools for Liver Function Imaging” (Molecular Pharmaceutics, 2025):
Read-outs that look alike come from different tables or passages of the source.

How the values were obtained:
[1] = biodistribution in healthy BALB/c mice; conditions: mouse, in vivo; for tissue uptake at 10 min: 10 min p.i.; for tissue uptake at 0.5 h: 30 min p.i.; for tissue uptake at 1 h: 60 min p.i.
Description: (§1) The ^68Ge/^68Ga generator, devices for analytical HPLC, semipreparative HPLC, mass spectrometry, radio-thin layer chromatography, gamma counter and animal models for biodistribution and imaging studies including the image reconstruction procedures were the same as described before.[22] Stability assays in PBS and human blood serum, protein binding as well as determination of log D values followed established protocols.[25] Binding affinities (IC50) of selected ligands were determined in an isolated receptor-based assay according to a previously published procedure with minor modifications.[22] Dilutions of nonradioactive complexes were made with PBS + 0.1% BSA (10^–5–10^–12 M). Preparation of [^125I]I-Asialoorosomucoid which serves as the radioactive standard ligand has been published recently.[21]
Animal experiments were performed in accordance with the Austrian animal experiments law (BGBl. I Nr. 114/2012) and the institution’s animal welfare standards as approved by the Austrian Federal Ministry of Education, Science and Research (BMBWF, 2022–0.311.708). Imaging experiments were conducted at Werner Siemens Imaging Center (Tübingen, Germany) according to the German animal welfare act as approved by the local authorities (R5/19 G, R09/21 G).
Figure 2 Biodistribution data (% ID/g) of ^68Ga-labeled NODAGA-GalNAc-NonaLysan, NODAGA-NonaLysan, NODAGA-HexaLysan, and NODAGA-TriLysan in healthy BALB/c mice at 10, 30, and 60 min p.i. (100 pmol, 1 MBq).

[2] = complex stability in PBS; format: physicochemical
Description: as §1

[3] = complex stability in human blood serum; format: in vitro ADME
Description: as §1

[4] = target: T1, ASGR (Mus musculus, UniProt P24721+P34927); experiment: blocking experiment, coinjection of N-acetylgalactosamine, biodistribution in BALB/c mice; conditions: in vivo, 30 min p.i., 27.7 μmol N-acetylgalactosamine
T1 construct: from tissue; host or cells: liver and other organs of living healthy female BALB/c mice
T1 sequence (P34927 1-284): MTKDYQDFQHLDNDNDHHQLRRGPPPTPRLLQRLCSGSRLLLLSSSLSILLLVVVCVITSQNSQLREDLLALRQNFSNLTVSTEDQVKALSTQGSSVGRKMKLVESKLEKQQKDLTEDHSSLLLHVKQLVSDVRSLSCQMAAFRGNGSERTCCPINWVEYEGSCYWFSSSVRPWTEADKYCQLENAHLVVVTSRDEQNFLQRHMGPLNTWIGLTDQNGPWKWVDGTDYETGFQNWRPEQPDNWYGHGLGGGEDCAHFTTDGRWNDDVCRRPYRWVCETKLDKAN
T1 sequence (P24721 1-301): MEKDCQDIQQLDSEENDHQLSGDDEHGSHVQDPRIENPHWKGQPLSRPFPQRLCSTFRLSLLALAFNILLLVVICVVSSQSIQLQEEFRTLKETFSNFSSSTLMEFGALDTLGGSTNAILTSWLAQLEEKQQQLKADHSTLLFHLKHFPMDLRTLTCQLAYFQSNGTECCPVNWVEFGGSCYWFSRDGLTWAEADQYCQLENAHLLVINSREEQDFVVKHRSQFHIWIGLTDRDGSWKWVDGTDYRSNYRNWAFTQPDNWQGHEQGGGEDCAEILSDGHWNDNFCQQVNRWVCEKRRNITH
Description: Less liver uptake was found for [^68Ga]Ga-NODAGA-HexaLysan (55.5 ± 7.4% ID/g, 30 min p.i.) and least for [^68Ga]Ga-NODAGA-TriLysan (9.4 ± 2.0% ID/g, 30 min p.i.). […] However, an increasing activity accumulation in the intestine was found for [^68Ga]Ga-NODAGA-NonaLysan, [^68Ga]Ga-NODAGA-GalNAc-Nonalysan, and [^68Ga]Ga-NODAGA-HexaLysan over time. Nevertheless, liver-to-organ ratios were highest for [^68Ga]Ga-NODAGA-NonaLysan (Figure 3). Lower liver-to-organ ratios were found for the GalNAc derivative due to higher off-target binding in the pancreas, stomach, heart, muscle, lung, and femur. […] Coinjection of both nonamers with a large excess of N-acetylgalactosamine led to a statistically significant reduction of liver uptake indicating specific interactions of the tracers with their target (Figure 4). As a consequence of the reduced liver uptake also a reduction of the intestinal uptake was observed.
Figure 4 Data (% ID/g) from the blocking experiments using ^68Ga-labeled NODAGA-GalNAc-NonaLysan and NODAGA-NonaLysan in healthy BALB/c mice at 30 min p.i. Blocking was carried out using 27.7 μmol of N-acetylgalactosamine (**p ≤ 0.01; *p ≤ 0.05).

[5] = protein binding in human serum; format: in vitro ADME; conditions: human, serum, read-out: protein binding (%) (converted)
Description: as §1

[6] = log D determination; format: physicochemical; conditions: read-out: log D
Description: as §1

## CC(=O)N[C@@H]1[C@@H](O)[C@@H](O)[C@@H](CO)O[C@H]1n1cc(CCCCC(=O)NCCCC[C@H](NC(=O)CCCNC(=O)CCC(C(=O)O)N2CCN(CC(=O)O)CCN(CC(=O)O)CC2)C(=O)NCC(=O)NCC(=O)N[C@@H](CCCCNC(=O)CCCCc2cn([C@@H]3O[C@H](CO)[C@H](O)[C@H](O)[C@H]3NC(C)=O)nn2)C(=O)NCC(=O)NCC(=O)N[C@@H](CCCCNC(=O)CCCCc2cn([C@@H]3O[C@H](CO)[C@H](O)[C@H](O)[C@H]3NC(C)=O)nn2)C(=O)NCC(=O)NCC(=O)N[C@@H](CCCCNC(=O)CCCCc2cn([C@@H]3O[C@H](CO)[C@H](O)[C@H](O)[C@H]3NC(C)=O)nn2)C(=O)NCC(=O)NCC(=O)N[C@@H](CCCCNC(=O)CCCCc2cn([C@@H]3O[C@H](CO)[C@H](O)[C@H](O)[C@H]3NC(C)=O)nn2)C(=O)NCC(=O)NCC(=O)N[C@@H](CCCCNC(=O)CCCCc2cn([C@@H]3O[C@H](CO)[C@H](O)[C@H](O)[C@H]3NC(C)=O)nn2)C(=O)NCC(=O)NCC(=O)N[C@@H](CCCCNC(=O)CCCCc2cn([C@@H]3O[C@H](CO)[C@H](O)[C@H](O)[C@H]3NC(C)=O)nn2)C(=O)NCC(=O)NCC(=O)N[C@@H](CCCCNC(=O)CCCCc2cn([C@@H]3O[C@H](CO)[C@H](O)[C@H](O)[C@H]3NC(C)=O)nn2)C(=O)NCC(=O)NCC(=O)N[C@@H](CCCCNC(=O)CCCCc2cn([C@@H]3O[C@H](CO)[C@H](O)[C@H](O)[C@H]3NC(C)=O)nn2)C(=O)NCC(=O)NCC(N)=O)nn1 (stereo partly drawn) [[^68Ga]Ga-NODAGA-GalNAc-NonaLysan, metal not drawn]
[1]; read-out: Blood uptake
  tissue uptake at 10 min: 0.9 ± 0.5 %ID/g
  tissue uptake at 0.5 h: 0.3 ± 0.1 %ID/g
  tissue uptake at 1 h: 0.3 ± 0.1 %ID/g
[1]; read-out: Femur uptake
  tissue uptake at 10 min: 0.9 ± 0.4 %ID/g
  tissue uptake at 0.5 h: 0.8 ± 0.1 %ID/g
  tissue uptake at 1 h: 0.9 ± 0.4 %ID/g
[1]; read-out: Heart uptake
  tissue uptake at 10 min: 1.9 ± 0.5 %ID/g
  tissue uptake at 0.5 h: 1.7 ± 0.2 %ID/g
  tissue uptake at 1 h: 1.7 ± 0.1 %ID/g
[1]; read-out: Intestine uptake
  tissue uptake at 10 min: 1.3 ± 0.3 %ID/g
  tissue uptake at 0.5 h: 3.5 ± 0.2 %ID/g
  tissue uptake at 1 h: 5.6 ± 0.03 %ID/g
[1]; read-out: Kidneys uptake
  tissue uptake at 10 min: 3.6 ± 2.7 %ID/g
  tissue uptake at 0.5 h: 1.5 ± 0.2 %ID/g
  tissue uptake at 1 h: 1.3 ± 0.02 %ID/g
[1]; read-out: Liver uptake
  tissue uptake at 10 min: 69.4 ± 5 %ID/g
  tissue uptake at 0.5 h: 77.6 ± 8 %ID/g
  tissue uptake at 1 h: 57.6 ± 0.7 %ID/g
[1]; read-out: Lung uptake
  tissue uptake at 10 min: 1.5 ± 0.1 %ID/g
  tissue uptake at 0.5 h: 1.5 ± 0.2 %ID/g
  tissue uptake at 1 h: 1.2 ± 0.04 %ID/g
[1]; read-out: Muscle uptake
  tissue uptake at 10 min: 1.3 ± 0.3 %ID/g
  tissue uptake at 0.5 h: 1.2 ± 0.1 %ID/g
  tissue uptake at 1 h: 1.1 ± 0.1 %ID/g
[1]; read-out: Pancreas uptake
  tissue uptake at 10 min: 5 ± 0.5 %ID/g
  tissue uptake at 0.5 h: 5.6 ± 0.6 %ID/g
  tissue uptake at 1 h: 5 ± 0.6 %ID/g
[1]; read-out: Spleen uptake
  tissue uptake at 10 min: 0.3 ± 0.1 %ID/g
  tissue uptake at 0.5 h: 0.3 ± 0.03 %ID/g
  tissue uptake at 1 h: 0.3 ± 0.1 %ID/g
[1]; read-out: Stomach uptake
  tissue uptake at 10 min: 2.3 ± 0.4 %ID/g
  tissue uptake at 0.5 h: 2.7 ± 1 %ID/g
  tissue uptake at 1 h: 2.2 %ID/g
[2]; 2 min
  complex stability in PBS (% intact ligand): 99.1%
[2]; 30 min
  complex stability in PBS (% intact ligand): 99.0%
[2]; 60 min
  complex stability in PBS (% intact ligand): 99.1%
[2]; 120 min
  complex stability in PBS (% intact ligand): 99.1%
[3]; 2 min
  complex stability in serum (% intact ligand): 98.8 ± 0.1%
[3]; 30 min
  complex stability in serum (% intact ligand): 98.8%
[3]; 60 min
  complex stability in serum (% intact ligand): 99.0 ± 0.2%
[3]; 120 min
  complex stability in serum (% intact ligand): 98.8 ± 0.2%
[4]; read-out: Blood uptake
  tissue uptake at 0.5 h: 0.4 ± 0.1 %ID/g
[4]; read-out: Femur uptake
  tissue uptake at 0.5 h: 0.7 ± 0.3 %ID/g
[4]; read-out: Heart uptake
  tissue uptake at 0.5 h: 0.8 ± 0.1 %ID/g
[4]; read-out: Intestine uptake
  tissue uptake at 0.5 h: 1.9 ± 0.4 %ID/g
[4]; read-out: Kidneys uptake
  tissue uptake at 0.5 h: 1.9 ± 0.4 %ID/g
[4]; read-out: Liver uptake
  tissue uptake at 0.5 h: 52.9 ± 3.2 %ID/g
[4]; read-out: Lung uptake
  tissue uptake at 0.5 h: 1.3 ± 0.3 %ID/g
[4]; read-out: Muscle uptake
  tissue uptake at 0.5 h: 1 ± 0.3 %ID/g
[4]; read-out: Pancreas uptake
  tissue uptake at 0.5 h: 1.5 ± 0.8 %ID/g
[4]; read-out: Spleen uptake
  tissue uptake at 0.5 h: 0.3 ± 0.02 %ID/g
[4]; read-out: Stomach uptake
  tissue uptake at 0.5 h: 2.4 ± 0.9 %ID/g
[5]; 2 min
  fraction unbound: 0.858
[5]; 30 min
  fraction unbound: 0.86
[5]; 60 min
  fraction unbound: 0.826
[5]; 120 min
  fraction unbound: 0.884
[6]
  logD: -4.05
